# Source: patent US9636314B2, “Medicament for treatment of non-insulin dependent diabetes mellitus, hypertension and/or metabolic syndrome” (Stevia Limited, priority 2001, dated 2017)
# “Also recorded” adds a separate entry of the source.
# Experiments:
# mice = settings: mouse, in vivo; cited from earlier work
# hamsters [1] = settings: cited from earlier work
# rats [2] = settings: rat, in vivo; cited from earlier work
# [3] = test system: Salmonella typhirmurium strains; settings: Salmonella typhimurium TA 98 and TA 100; cited from earlier work
# [4] = six in vitro and one in vivo mutagenicity assays; cited from earlier work
# isolated mouse islets = experiment: glucose-stimulated insulin secretion from isolated mouse islets; assay type: cell-based; settings: for maximal stimulatory dose / glucose-stimulated insulin secretion: NMRI mouse islets; for glucose-stimulated insulin secretion: 16.7 mmol/l, 10^−9-10^−3 mol/l
# Protocol: Islet from 6-10 NMRI mice were isolated and incubated in the presence of 16.7 mmol/l and 10^−9-10^−3 mol/l stevioside or 10^−9-10^−3 mol/l steviol. The results of these tests are illustrated in FIGS. 4a and 4b where each column represents mean±SEM from 24 incubations of single islets. Black bars in FIG. 4a indicate that stevioside is present and hatched bars indicate that stevioside is absent. Black bars in FIG. 4b indicate that steviol is present and hatched bars indicate that steviol is absent. The influence of the maximal stimulatory doses of 10^−3 mol/l stevioside and 10^−6 mol/l steviol was studied in NMRI mouse islets over a range between 0 and 16.7 mmol/l glucose. […] Black bars in FIG. 7a indicate that stevioside is present and hatched bars indicate that stevioside is absent. Black bars in FIG. 7b indicate that steviol is present and hatched bars indicate that steviol is absent.
# rats [5] = experiment: intravenous administration to rats (earlier work of the inventors); assay type: in vivo, rat; settings: i.v.
# [6] = test system: type II diabetic patients; experiment: acute paired cross-over test meal study with oral stevioside; assay type: in vivo, human; settings: 1 g stevioside orally with standard meal
# Excerpt: Twelve type II diabetic patients (4 female/8 males) with a mean age of 65.8±1.6 years, a diabetes duration of 6.0±1.3 years, a mean body mass index of 28.5±1.0, and a mean glycated hemoglobin HbA1c of 7.4±0.4 percent were included in the study. The experiment was an acute, paired, cross-over study in which two test meals were served during the experiments (A: Standard meal supplemented with 1 g of stevioside given orally; B: Standard meal given together with 1 g of gelatine (placebo) given orally. The total energy content of the test meals was 1725 kJ (protein 16 E %, fat 30 E %, carbohydrate 54 E %). Blood samples were drawn from an antecubital vein 30 minutes before and 240 minutes after ingestion of the test meal. The arterial blood pressure was continuously monitored during the experiment. Students paired t-test was used for comparing the effects of stevioside with placebo on the parameters measured. Data are given as mean±SEM.
# [7] = test system: spontaneously hypertensive rats; settings: cited from earlier work
# [8] = test system: isolated normal pancreatic rat islets; settings: 7 mmol/l D-glucose; stevioside 1.0 mmol/l; cited from earlier work
# [9] = stevioside infusion at normal blood glucose; assay type: in vivo; settings: bolus or constant intravenous infusion
# GK rats [10] = experiment: blood pressure during 6 weeks treatment of GK rats with stevioside; assay type: in vivo, rat; settings: 0.025 g/kg/24 h in drinking water, detectable after 2 weeks, then stable
# Protocol: GK rats were treated with stevioside 0.025 g/kg body weight/24 h for 6 weeks. Stevioside was administered in the drinking water. GK rats receiving drinking water with 0.111 g D-glucose/kg body weight/24 h served as controls. Systolic (FIG. 6a, control: O-O series, stevioside-treated: (2)-(2) series) and diastolic (FIG. 6b, control: O-O series, stevioside-treated: (2)-(2) series) blood pressures were measured on the tail.
# [11] = rats; cited from earlier work
# GK rats [12] = experiment: i.v. glucose tolerance test with stevioside in GK rats (plasma glucose and insulin); assay type: in vivo, rat; settings: 2.0 g glucose/kg + 0.2 g stevioside/kg i.v.
# Protocol: In the following examples, the type II diabetic Goto-Kakizaki (GK) rats originated from Takeda Chemical Ind., Tokyo, Japan and were bred locally. As examples of the effects of a compound including the chemical formulas II, stevioside was tested on normal Wistar rats and on GK rats. 2.0 g glucose/kg body weight and 0.2 g stevioside/kg body weight were dissolved in 0.9% saline and infused intravenously. The plasma glucose and insulin levels were measured over a period of 2 hours. The results are shown in FIGS. 2a, 2b, 3a and 3b, were the O-O series (n=6 for Wistar and n=14 for GK) illustrate glucose infused alone and the (2)-(2) series (n=6 for Wistar and n=12 for GK) illustrate the combined glucose and stevioside infusion. Data are given as mean±SEM.
# hamsters [13] = settings: doses as high as 2.5 g/kg body weight/day; cited from earlier work
# F344 rats = settings: cited from earlier work
# GK-rats = experiment: four-week test diets (stevioside and/or soy) in Goto-Kakizaki rats with glucose tolerance test; assay type: in vivo, rat; settings: 4 weeks, p<0.05
# Protocol: Four test diets (A: Standard carbohydrate rich laboratory animal diet (Altromin); n=12 (Alt). B: Altromin supplemented with stevioside (Altromin+Stevioside); n=12; (Alt+Ste). C: Soy plus 20% Altromin; n=12; (Soy). D: Soy plus 20% Altromin plus stevioside; n=12; (Soy+Ste)) were administered for four weeks to four groups of adult rats. Each experimental group consisted of twelve female Goto-Kakizaki wish an age of 9 weeks. The rats received the stevioside (0.025 g/kg body weight/day) with the drinking water. […] Plasma concentrations of glucose, insulin, and glucagon were measured during the glucose tolerance test. Immediately before the glucose tolerance test fasting levels of triglycerides and cholesterol were determined. Concomitantly, the systolic blood pressure was measured using a tail cuff. (Plasma glucose was measured using MPR 3, 166 391, Glucose/GOD-PAP Method from Boehringer Mannheim) (Plasma insulin was measured using Sensitive Rat Insulin RIA, Cat #SRI-13K from Linco) (Plasma glucagon was measured using Glucagon RIA. Cat #GL-32K from Linco) (Blood pressure was measured using TSE Non-Invasive Blood Pressure Monitoring System from Technical Scientific Equipment GmbK) (Plasma cholesterol was measured GOD-PAP from Roche and triglycerides was measured using GHOD-PAP from Roche)
# [14] = isolated perfused rat liver; cited from earlier work
# GK rats [15] = experiment: plasma glucagon during glucose tolerance test in GK rats; assay type: in vivo, rat; settings: stevioside 0.2 g/kg i.v. bolus, glucose 2.0 g/kg
# Protocol: During a glucose tolerance test, an intravenous bolus of stevioside of 0.2 g/kg body weight was injected in GK rats (the (2)-(2) serie (n=6)). GK rats receiving 0.9% saline intravenously served as controls (the O-O serie (n=6)). Glucose 2.0 g/kg body weight was administered as a bolus at timepoint 0 min. The plasma glucagon responses are shown as mean±SEM in FIGS. 5a (control) and 5b (GK). The plasma glucagon was suppressed in the stevioside treated GK rat.
compound,measurement,setting,value
C=C1C[C@@]23CC[C@H]4[C@@](C)(CCC[C@@]4(C)C(=O)O)[C@@H]2CC[C@]1(O)C3 [steviol],LD50,mice,higher than 15 g/kg body weight
same,LD50,"hamsters [1]; hamster, in vivo",5-6 g/kg body weight
same,finding that accompanied lethality,"hamsters [1]; hamsters, correlated to increases in blood urea nitrogen and creatinine",degeneration of the proximal tubular cells
same,LD50,rats [2],higher than 15 g/kg body weight
same,mutagenic effect,[3],no mutagenic effect
same,mutagenicity,[4],dose-related positive responses in some mutagenicity test
same,stimulation of insulin secretion compared with stevioside,isolated mouse islets,to a greater extent
same,maximal stimulatory dose,isolated mouse islets,10^−6 mol/l
same,glucose-stimulated insulin secretion,isolated mouse islets,capable of potentiating glucose-stimulated insulin secretion
same,effect when administered intravenously to rats,rats [5],"anti-hyperglycemic, glucagonostatic and insulinotropic effect"
C=C1C[C@@]23CC[C@H]4[C@@](C)(CCC[C@@]4(C)C(=O)O[C@@H]4O[C@H](CO)[C@@H](O)[C@H](O)[C@H]4O)[C@@H]2CC[C@]1(O[C@@H]1O[C@H](CO)[C@@H](O)[C@H](O)[C@H]1O[C@@H]1O[C@H](CO)[C@@H](O)[C@H](O)[C@H]1O)C3 [stevioside],reduction of the postprandial blood glucose response compared to placebo,"[6]; mean±SEM, p<0.004",18±5%
same,absolute IAUC of postprandial blood glucose,"[6]; mean±SEM, p<0.02 vs placebo",522±64 mmol/l×240 min
same,postprandial glucagon like peptide-1 (GLP-1) levels,"[6]; mean±SEM, p<0.045 vs placebo",1529±296
same,postprandial glucagon levels,"[6]; mean±SEM, p=0.02 vs placebo",281±33
same,insulin response (IAUC),"[6]; p=0.09, not statistically significant",tended to stimulate the insulin response
same,fall in the systolic blood pressure,[7]; 200 mg/kg intravenously (maximum hypotensive effect),only small
same,heart rate,[7]; intravenous stevioside,Neither the heart rate nor the plasma catecholamines were significantly changed
same,plasma catecholamines,[7]; intravenous stevioside,Neither the heart rate nor the plasma catecholamines were significantly changed
same,insulin output,[8],significant increase in insulin output
same,hypoglycemia,[9],did not cause any hypoglycemia
same,"decrease in the blood pressure (systolic and diastolic, tail)",GK rats [10],10-15%
same,mutagenic effect,[3],no mutagenic effect
same,route of excretion,[11],excreted by the urine
same,mutagenicity,[4],not mutagenic
same,time at which a significant decrease of plasma glucose was observed,GK rats [12],30 min
same,blood glucose response to intravenous glucose,GK rats [12]; 2 hours,inhibited blood glucose responses; also recorded: diminished glucose response
same,insulin response,GK rats [12]; compared to the Wistar rat,pronounced increase in the insulin response
same,effect on growth or reproduction,hamsters [13],no effect on growth or reproduction
same,maximal stimulatory dose,isolated mouse islets,10^−3 mol/l
same,glucose-stimulated insulin secretion,isolated mouse islets,capable of potentiating glucose-stimulated insulin secretion
same,carcinogenicity,F344 rats,not carcinogenic
same,"suppression of the systolic blood pressure (Δ), stevioside in combination with Altromin",GK-rats,−28 mmHg
same,"suppression of the systolic blood pressure (Δ), stevioside in combination with soy",GK-rats,−21 mmHg
same,metabolism,[14],not metabolised
same,effect when administered intravenously to rats,rats [5],"anti-hyperglycemic, glucagonostatic and insulinotropic effect"
same,plasma glucagon,GK rats [15],suppressed
